According to patent US8633177B2, “Nitroxyl (HNO) releasing compounds and uses thereof in treating diseases” (The United States of America, as represented by the …, priority 2010, dated 2014):

Experiments:
[1] = target: T1, glyceraldehyde-3-phosphate dehydrogenase (GAPDH) (Homo sapiens, UniProt P04406); assay: GAPDH activity, MDA-MB-231; type: cell-based; design: endogenous in cells; host or cells: MDA-MB-231, MDA-MB-468, MCF-7, MCF-10A; conditions: MDA-MB-231, 100 μM
Protocol: (§1) Cells were plated at a concentration of 30,000 cells per well and grown overnight. Cells were treated with 100 μM IPA/NO-aspirin and DEA/NO-aspirin for 1, 3, and 6 h after which 200 μL of KDalert lysis buffer was added to each well. The plate was incubated at 4° C. for 20 min to lyse the cells. 10 μL of cell lysate was transferred to a clean 96 well plate and 90 μL of KDalert mastermix was added to each well and the fluorescence was measured at excitation of 540 nm and emission of 570 nm.

[2] = test system: reactive oxygen species (ROS); assay: ROS level with DCF; type: cell-based; conditions: 100 μM
Protocol: To investigate the role of ROS in apoptosis, the ROS level was studied in the presence of the compounds in a time dependent manner using 2′,7′-dichlorofluorescein (DCF) in all four cell lines. Cells were plated at a concentration of 30,000 cells per well and grown overnight. Cells were treated with 100 μM DCF (Sigma Aldrich) and incubated for 30 min at 37° C. The cells were then washed five times with PBS pH 7.4 and 100 μM of IPA/NO-aspirin, DEA/NO-aspirin, IPA/NO, DEA/NO and aspirin were added.

[3] = test system: Prostaglandin E2; assay: PGE2 production, prostaglandin E2 EIA kit; type: cell-based; conditions: 24 h
Protocol: Cells were plated at a concentration of 50,000 cells per well and grown overnight. Then 25, 50, and 100 μM of DMSO, IPA/NO-aspirin, and DEA/NO-aspirin were added to the corresponding well for 24 h and incubated at 37° C. The supernant was then analyzed for PGE2 activity using prostaglandin E2 EIA kit (Cayman Cat No. 514010).

[4] = test system: E-cadherin; assay: E-cadherin expression in MDA-MB-231 cells; type: cell-based, human; conditions: MDA-MB-231, 100 μM, mRNA and protein level
Protocol: MDA-MB-231 cells were plated at a concentration of 500,000 cells per plate on 60 mm plate and grown overnight. They were then treated with 100 μM of IPA/NO-aspirin, DEA/NO-aspirin, IPA/NO, DEA/NO and aspirin for 1 to 24 h.

[5] = test system: MB-231 cells stably transfected with green fluorescent protein (GFP); assay: Tumor size in nude mice implanted with MB-231-GFP cells; type: in vivo; conditions: daily injection for 5 weeks, equi-molar dosages, compared to control
Protocol: 40 Nude mice were implanted with 7.5E5 MB-231 cells stably transfected with green fluorescent protein (GFP) per animal and allowed to grow for 14 days. The animals were randomly divided into four groups: untreated as a control, aspirin treated, IPA/NO-aspirin and DEA/NO-aspirin. Treated groups were injected daily with equi-molar dosages of the corresponding compounds (DEA/NO-aspirin=16.25 mg/Kg, IPA/NO-aspirin=15.75 mg/Kg, Aspirin=9 mg/Kg) for the next 5 weeks daily and the tumor size was measured using in vivo fluorescent imaging for quantification of the GFP tag (FIG. 9A (mammary tumor) and FIG. 9B (brain tumor)). The animals were then sacrificed to assess their brain for metastasis.

[6] = test system: carrageenan induced rat paw edema; assay: Carrageenan induced rat paw edema assay; type: in vivo, Sprague-Dawley rats; conditions: for Anti-inflammatory Activity ID50: oral, 3 h after administration
Protocol: Anti-inflammatory properties were studied in vivo in a carrageenan induced rat paw edema assay after 3 h of administration of the compound orally to Sprague-Dawley rats.
To verify whether IPA/NO-aspirin and DEA/NO-aspirin retain the anti-inflammatory properties of their parent NSAID in vivo, aspirin, PA/NO-aspirin or DEA/NO-aspirin was administered to rats with paw edema induced by carrageenan.

[7] = test system: caspase-3; assay: Caspase-3 fluorescence assay, MCF-7; type: cell-based, human; conditions: 12 h
Protocol: The caspase-3 activity in the presence of IPA/NO-ASA and DEA/NO-ASA was measured using caspase-3 fluorescence assay kit (Cat No. 10009135, Cayman Chemical). Cells were plated at a concentration of 50,000 cells per well in a 96 well plate and grown overnight. Then the cells were treated with different concentrations of the compounds and controls for 12 h. After 12 h, the plate was centrifuged at 800 g and the media was removed by aspiration. 100 μL of lysis buffer was added to each well and the plate was incubated for […] at room temperature. 100 μL of a caspase-3 substrate solution was added to each well and incubated for 30 min after which the fluorescence was read at excitation of 485 nm and emission of 535 nm.

[8] = test system: breast cancer cells; assay: MTT cell survival, breast cancer cells (cell line not given); type: cell-based, human; conditions: 48 h of treatment, cell line not named
Protocol: (§2) The effect of NONO-aspirin on cell proliferation was studied using an MTT assay. The effect of DEA/NO-ASA, IPA/NO-ASA, aspirin, IPA/NO and DEA/NO was measured using the MTT assay. Cells were plated at a concentration of 8,000-10,000 cells per well in a 96 well plate and grown overnight. Cells were treated with different concentrations of the compounds and controls for 48 h. After 48 h, a solution of 5 mg/ml MTT was added to each well and incubated for 1 h. Then the media was removed from each well and 100 uL DMSO was added to each well and the absorbance was read at 550 nm. Inhibition of growth with different treatments was reported as percentage of corresponding control.

[9] = test system: MCF-10A; assay: MTT cell survival, MCF-10A; type: cell-based; conditions: MCF-10A normal mammary epithelial cell line, 48 h
Protocol: MDA-MB-231, MCF-7 and MDA-MB-468, human breast carcinoma cell lines and MCF-10A, breast […] (American Type Culture Collection, Manassas, Va.) were grown as monolayers in RPMI 1640 supplemented with 10% FCS (Hyclone), penicillin (50 units/ml), streptomycin ([…]; Life Technologies, Inc., Grand Island, N.Y.) and endothelial growth media (Lonanza) respectively. Cells were seeded at a density of 1×10^6 cells/100-cm^2 culture dish and incubated at 37° C. in 5% CO2 and 80% relative humidity. Single-cell suspensions were obtained by trypsinization (0.05% trypsin/EDTA), and cells were counted using a Beckman cell counter.
1000× stock solutions aspirin, of a DEA/NO-ASA, and IPA/NO-ASA were made in DMSO and final concentration in the media or PBS was adjusted to 0.1% DMSO.
as §2, with “Inhibition of growth with different treatments was reported as percentage of corresponding control.” left out

[10] = target: T1, glyceraldehyde-3-phosphate dehydrogenase (GAPDH); assay: GAPDH activity, MDA-MB-468; type: cell-based; design: endogenous in cells; host or cells: MDA-MB-468; conditions: MDA-MB-468, 100 μM
Protocol: as §1

T1 sequence (P04406 whole entry): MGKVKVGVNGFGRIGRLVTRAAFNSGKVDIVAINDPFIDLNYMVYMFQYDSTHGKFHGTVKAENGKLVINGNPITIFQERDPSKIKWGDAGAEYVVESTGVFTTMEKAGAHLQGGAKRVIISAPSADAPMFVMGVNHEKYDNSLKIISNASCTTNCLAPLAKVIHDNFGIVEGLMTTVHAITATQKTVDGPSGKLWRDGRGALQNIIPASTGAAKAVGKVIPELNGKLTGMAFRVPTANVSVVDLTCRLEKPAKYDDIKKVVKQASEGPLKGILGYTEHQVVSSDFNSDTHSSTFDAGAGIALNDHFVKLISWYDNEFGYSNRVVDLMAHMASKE

| Structure (SMILES) | GAPDH Activity ([1]; 1 h) | GAPDH Activity ([1]; 3 h) | GAPDH Activity ([1]; 6 h) | ROS level [2] | Prostaglandin E2 ([3]; 25 μM) | Prostaglandin E2 ([3]; 50 μM) | Prostaglandin E2 ([3]; 100 μM) | E-cadherin level [4] | tumor size [5] | Anti-inflammatory Activity ID50 [6] | Caspase-3 Activity ([7]; MCF-7, 25 μM) | Caspase-3 Activity ([7]; MCF-7, 50 μM) | Caspase-3 Activity ([7]; MCF-7, 100 μM) | IC50 [8] | cytotoxicity [9] | GAPDH Activity ([10]; 1 h) | GAPDH Activity ([10]; 3 h) | GAPDH Activity ([10]; 6 h) | potency relative to aspirin ([6]; less potent than parent drug) |
| --- | --- | --- | --- | --- | --- | --- | --- | --- | --- | --- | --- | --- | --- | --- | --- | --- | --- | --- | --- |
| CC(=O)Oc1ccccc1C(=O)OCON=[N+]([O-])NC(C)C [IPA/NO-aspirin, O^2-(Acetylsalicyloyloxymethyl)-1-(N-isopropylamino)-diazen-1-ium-1,2-diolate] | 0.120 U/mL | 0.070 U/mL | 0.050 U/mL | significant increase in ROS level | 17 pg/mL | 14 pg/mL | 13 pg/mL | did not show any significant change | effective in reducing the tumor size | 121.3 mg/kg | 0.30 U/mL | 0.60 U/mL | 0.58 U/mL | 50 µM | none of the compounds showed any significant cytotoxicity | <0.010 U/mL | <0.010 U/mL | <0.010 U/mL | – |
| CCN(CC)[N+]([O-])=NOCOC(=O)c1ccccc1OC(C)=O [DEA/NO-aspirin, O^2-(Acetylsalicyloyloxymethyl)-1-(N,N-Diethylamino)-diazen-1-ium-1,2-diolate] | 0.150 U/mL | 0.160 U/mL | 0.150 U/mL | much lower | 21 pg/mL | 38 pg/mL | 36 pg/mL | increased E-cadherin expression | effective in reducing the tumor size | 168.6 mg/kg | 0.30 U/mL | 0.35 U/mL | 0.27 U/mL | 75 µM | none of the compounds showed any significant cytotoxicity | 0.060 U/mL | 0.065 U/mL | 0.050 U/mL | 1.3 times |
